Experimental data published in US20230321086A1, “METHODS AND MATERIALS FOR INHIBITING NICOTINAMIDE PHOSPHORIBOSYLTRANSFERASE ACTIVITY” (Universiy of Pittsburgh - Of the Commonwealth System of …, priority 2020, published 2023).

Tested on: A431 cells
Assay: Assay for total NADH and NAD+ measurements in cells
Assay type: cell-based
Parameters: C: change in NAD levels in response to test compound, shown as % of NAD activity in the absence of test compound: concentration or dose not given beside the values
Conditions: percent of NAD level of untreated control cells (100 = no change)
Description: 2,000 cells/well and, at the same time, test compounds dissolved in media at the desired concentration were added to each well. The treated cells were incubated overnight in C02 incubator. The cells were washed 6 times with PBS with 1 mM CaCl2) and 1 mM MgCl2. In the last wash, 10 μL of PBS with 1 mM CaCl2) and 1 mM MgCl2 per well were left in each well. Immediately thereafter, 10 μL 0.4% dodecyltrimethylammonium bromide (DTAB) in phosphate buffer pH 8.0 as added, and the plates were shaked at 1000 rpm for 5 minutes. 60 μL reaction mix was added, and fluorescence at Ex/Em 530/585 was immediately monitored. A linear increase should be achieved with 8 cycles every 92 seconds, 10 number of flashes/well/cycle. The reaction mix was prepared per the following table, respecting the amount and order in which each component was added:
All assays were performed in A431 cells. Referring to the tables below, activity: “+” ≥25 μM, “++” ≥1 μM and <25 μM, and “+++”<1 μM.
In each table header, A: NAMPT enzyme inhibitory activity, IC50 (μM); B: Cellular NAD inhibitory activity, IC50 (μM); and C: change in NAD levels in response to test compound, shown as % of NAD activity in the absence of test compound. […] A percentage of 100 percent would indicate no increase or decrease in NAD levels as compared to that measured for untreated control cells, while a percentage of 50 percent would indicate a decrease in NAD levels of 50 percent as compared to that measured for untreated control cells.

Compound	C: change in NAD levels in response to test compound, shown as % of NAD activity in the absence of test compound [%]
CN1CCN(C(=O)c2ccc3nc(-c4ccc(F)cc4)c(-c4ccc(OC(F)(F)F)cc4)nc3c2)CC1 [BC19399]	92
CN1CCN(C(=O)c2cccc3nc(-c4ccc(F)cc4)c(-c4ccc(F)cc4)nc23)CC1 [BC19400]	76
Cn1cc(-c2cnc3nc(-c4ccc(F)cc4)c(-c4ccc(F)cc4)nc3c2)nn1 [BC19401]	55
CCCn1cc(-c2cnc3nc(-c4ccc(F)cc4)c(-c4ccc(F)cc4)nc3c2)nn1 [BC19402]	64
Fc1ccc(-c2nc3cccnc3nc2-c2ccc(F)cc2)cc1 [BC19403]	68
OCCn1ncc(-c2ccc3nc(-c4ccc(F)cc4)c(-c4ccc(F)cc4)nc3c2)n1 [BC19404]	65
CN1CCN(C(=O)c2ccc3nc(-c4ccc(F)cc4F)c(-c4ccccc4)nc3c2)CC1 [BC19405]	69
C#CCNC(=O)c1ccc2nc(-c3ccc(F)cc3F)c(-c3ccccc3)nc2c1 [BC19406]	93
CN1CCN(C(=O)c2cnc3nc(-c4ccc(F)cc4)c(-c4ccc(F)cc4)nc3c2)CC1 [BC19408]	95
CN1CCN(C(=O)c2ccc3nc(-c4ccc(OC(F)(F)F)cc4)c(-c4ccc(OC(F)(F)F)cc4)nc3c2)CC1 [BC19445]	14
CNC(=O)c1ccc2nc(-c3ccc(OC(F)(F)F)cc3)c(-c3ccc(OC(F)(F)F)cc3)nc2c1 [BC19447]	50
Oc1ccc2nc(-c3ccc(F)cc3)c(-c3ccc(F)cc3)nc2n1 [BC19448]	78
CN1CCN(C(=O)c2ccc3nc(-c4ccc(Cl)cc4)c(-c4ccc(Cl)cc4)nc3c2)CC1 [BC19450]	78
C#CCNC(=O)c1ccc2nc(-c3ccc(Cl)cc3)c(-c3ccc(Cl)cc3)nc2c1 [BC19451]	57
O=C(NCCO)c1ccc2nc(-c3ccc(OC(F)(F)F)cc3)c(-c3ccc(OC(F)(F)F)cc3)nc2c1 [BC19453]	88
COCC(=O)N1CCC(C(=O)Nc2ccc3nc(-c4ccc(F)cc4)c(-c4ccc(F)cc4)nc3c2)CC1 [BC19494]	52
Cn1cnnc1-c1cnc2nc(-c3ccc(F)cc3)c(-c3ccc(F)cc3)nc2c1 [BC19496]	95
O=C(NCCN1CCOCC1)c1ccc2nc(-c3ccc(Cl)cc3)c(-c3ccc(Cl)cc3)nc2c1 [BC19497]	49
CN1CCN(C(=O)c2ccc3nc(-c4cccc(N(C)C)c4)c(-c4cccc(N(C)C)c4)nc3c2)CC1 [BC19498]	66
O=C(NCCN1CCOCC1)c1ccc2nc(-c3ccc(OC(F)(F)F)cc3)c(-c3ccc(OC(F)(F)F)cc3)nc2c1 [BC19503]	43
O=S(=O)(NCCN1CCOCC1)c1ccc2nc(-c3ccc(F)cc3)c(-c3ccc(F)cc3)nc2c1 [BC19504]	58
O=S(=O)(NC1CC1)c1ccc2nc(-c3ccc(F)cc3)c(-c3ccc(F)cc3)nc2c1 [BC19505]	30
O=S(=O)(NCC1CC1)c1ccc2nc(-c3ccc(F)cc3)c(-c3ccc(F)cc3)nc2c1 [BC19506]	66
COCCNS(=O)(=O)c1ccc2nc(-c3ccc(F)cc3)c(-c3ccc(F)cc3)nc2c1 [BC19507]	53
O=S(=O)(NCCCN1CCOCC1)c1ccc2nc(-c3ccc(F)cc3)c(-c3ccc(F)cc3)nc2c1 [BC19508]	28
O=S(=O)(NCCCO)c1ccc2nc(-c3ccc(F)cc3)c(-c3ccc(F)cc3)nc2c1 [BC19509]	66

Compound	C: change in NAD levels in response to test compound, shown as % of NAD activity in the absence of test compound [%]
CN1CCN(c2ccc3nc(-c4ccc(F)cc4)c(-c4ccc(F)cc4)nc3c2)CC1 [BC19510]	41
CC(=O)N1CCN(c2ccc3nc(-c4ccc(F)cc4)c(-c4ccc(F)cc4)nc3c2)CC1 [BC19511]	26
N#Cc1ccc2nc(-c3ccc(F)cc3)c(-c3ccc(F)cc3)nc2n1 [BC19512]	85
O=C(c1ccc2nc(-c3ccc(F)cc3)c(-c3ccc(F)cc3)nc2c1)N1CCN(CCO)CC1 [BC19513]	49
O=C(c1ccc2nc(-c3ccc(F)cc3)c(-c3ccc(F)cc3)nc2c1)N1CCN(CCOCCO)CC1 [BC19514]	73
COCCCNS(=O)(=O)c1ccc2nc(-c3ccc(F)cc3)c(-c3ccc(F)cc3)nc2c1 [BC19554]	52
CN(C)CCNS(=O)(=O)c1ccc2nc(-c3ccc(F)cc3)c(-c3ccc(F)cc3)nc2c1 [BC19555]	1
CCNS(=O)(=O)c1ccc2nc(-c3ccc(F)cc3)c(-c3ccc(F)cc3)nc2c1 [BC19556]	44
O=S(=O)(NCc1cccnc1)c1ccc2nc(-c3ccc(F)cc3)c(-c3ccc(F)cc3)nc2c1 [BC19557]	63
O=S(=O)(NCc1ccccn1)c1ccc2nc(-c3ccc(F)cc3)c(-c3ccc(F)cc3)nc2c1 [BC19559]	42
O=C1CCCN1CCCNS(=O)(=O)c1ccc2nc(-c3ccc(F)cc3)c(-c3ccc(F)cc3)nc2c1 [BC19560]	51
CN1CCN(CCCNS(=O)(=O)c2ccc3nc(-c4ccc(F)cc4)c(-c4ccc(F)cc4)nc3c2)CC1 [BC19561]	24
CN(C)CCCNS(=O)(=O)c1ccc2nc(-c3ccc(F)cc3)c(-c3ccc(F)cc3)nc2c1 [BC19562]	1
CCNC(=O)Nc1ccc2nc(-c3ccc(F)cc3)c(-c3ccc(F)cc3)nc2c1 [BC19563]	90
CN(C)CCNC(=O)Nc1ccc2nc(-c3ccc(F)cc3)c(-c3ccc(F)cc3)nc2c1 [BC19564]	5
COCCNC(=O)Nc1ccc2nc(-c3ccc(F)cc3)c(-c3ccc(F)cc3)nc2c1 [BC19565]	65
O=C(NCCO)Nc1ccc2nc(-c3ccc(F)cc3)c(-c3ccc(F)cc3)nc2c1 [BC19566]	77
O=C(NCCN1CCOCC1)Nc1ccc2nc(-c3ccc(F)cc3)c(-c3ccc(F)cc3)nc2c1 [BC19567]	46
O=C(Nc1ccc2nc(-c3ccc(F)cc3)c(-c3ccc(F)cc3)nc2c1)NC1CC1 [BC19568]	81
O=C(NCC1CC1)Nc1ccc2nc(-c3ccc(F)cc3)c(-c3ccc(F)cc3)nc2c1 [BC19569]	57
O=C(NCc1ccccn1)Nc1ccc2nc(-c3ccc(F)cc3)c(-c3ccc(F)cc3)nc2c1 [BC19570]	29
O=C(NCc1cccnc1)Nc1ccc2nc(-c3ccc(F)cc3)c(-c3ccc(F)cc3)nc2c1 [BC19571]	10
O=C(NCc1ccncc1)Nc1ccc2nc(-c3ccc(F)cc3)c(-c3ccc(F)cc3)nc2c1 [BC19572]	26
CN(C)CCCNC(=O)Nc1ccc2nc(-c3ccc(F)cc3)c(-c3ccc(F)cc3)nc2c1 [BC19573]	11
COCCCNC(=O)Nc1ccc2nc(-c3ccc(F)cc3)c(-c3ccc(F)cc3)nc2c1 [BC19574]	61
O=C(NCCCO)Nc1ccc2nc(-c3ccc(F)cc3)c(-c3ccc(F)cc3)nc2c1 [BC19575]	78
